Assay results from patent US9512120B2, “Microbicidally active imidazopyridine derivatives” (Syngenta Participations AG, priority 2013, dated 2016).

Assays:
[1] = system: Plasmopara viticola; test: Plasmopara viticola / grape / leaf disc preventative; assay type: in vivo; settings: foliar, grape vine leaf disks, inoculated 1 day after application, assessed 6-8 days after application, read-out: control of Plasmopara viticola (percent disease control compared to untreated)
[2] = system: Puccinia recondita f. sp. Tritici; test: Puccinia recondita f. sp. tritici / wheat / leaf disc preventative (brown rust); assay type: in vivo; settings: foliar, wheat leaf segments cv Kanzler, inoculated 1 day after application, assessed 7-9 days after application, read-out: control of Puccinia recondita f. sp. Tritici (percent disease control compared to untreated)
Procedure, shortened: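 Leaf segments of wheat cv Kanzler on agar were sprayed with formulated compound at 200 ppm and inoculated with spores 1 day later. Incubation was at 19° C, 75% relative humidity and 12/12 h light/dark. Activity was scored 7-9 days after application as percent disease control versus untreated.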

[3] = system: Phaeosphaeria nodorum (Septoria nodorum); test: Phaeosphaeria nodorum (Septoria nodorum) / wheat / leaf disc preventative (glume blotch); assay type: in vivo; settings: Parastagonospora nodorum, foliar, wheat leaf segments cv Kanzler, inoculated 2 days after application, assessed 5-7 days after application, read-out: control of Phaeosphaeria nodorum (percent disease control compared to untreated)
Procedure, shortened: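 Wheat leaf segments (cv Kanzler) on agar sprayed with compound at 200 ppm, inoculated with spores 2 days later. Incubated at 20° C., 75% relative humidity, 12/12 h light/dark; percent disease control versus untreated scored 5-7 days after application.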

[4] = system: Pyrenophora teres; test: Pyrenophora teres / barley / leaf disc preventative (net blotch); assay type: in vivo; settings: foliar, barley leaf segments cv Hasso, inoculated two days after application, assessed 5-7 days after application, read-out: control of Pyrenophora teres (disease control compared to untreated)
Procedure, shortened: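 Barley cv Hasso leaf segments on agar sprayed with compound at 200 ppm, inoculated with spores two days later. Kept at 20 °C, 65% RH, 12/12 h light; disease control versus untreated scored 5-7 days after application.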

[5] = system: Botryotinia fuckeliana (Botrytis cinerea); test: Botryotinia fuckeliana (Botrytis cinerea) / liquid culture (gray mould); assay type: cell-based; settings: Vogels broth, 24° C., 3-4 days after application, read-out: control of Botryotinia fuckeliana (inhibition of growth, photometric)
Procedure, shortened: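 Botrytis cinerea conidia in Vogels broth were added to test compound applied from DMSO at 200 ppm. Incubation at 24 °C; growth inhibition read photometrically 3-4 days after application.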

[6] = system: Glomerella lagenarium (Colletotrichum lagenarium); test: Glomerella lagenarium (Colletotrichum lagenarium) / liquid culture (anthracnose); assay type: cell-based; settings: Colletotrichum orbiculare, PDB, 24° C., 3-4 days after application, read-out: control of Glomerella lagenarium (inhibition of growth, photometric)
Procedure, shortened: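 Cryopreserved conidia suspended in potato dextrose broth were added to compound in DMSO applied at 200 ppm. Plates incubated at 24° C; growth inhibition read photometrically 3-4 days after application.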

[7] = system: Mycosphaerella graminicola (Septoria tritici); test: Mycosphaerella graminicola (Septoria tritici) / liquid culture (Septoria blotch); assay type: cell-based; settings: Zymoseptoria tritici, PDB, 24° C., 4-5 days after application, read-out: control of Mycosphaerella graminicola (inhibition of growth, photometric)
Procedure, shortened: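 Cryo-stored conidia in potato dextrose broth were added to compound in DMSO at 200 ppm in microtiter plates. Plates were incubated at 24 °C and growth inhibition was measured photometrically 4–5 days after application.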

[8] = system: Gaeumannomyces graminis; test: Gaeumannomyces graminis / liquid culture (take-all of cereals); assay type: cell-based; settings: PDB, 24° C., 4-5 days after application, read-out: control of Gaeumannomyces graminis (inhibition of growth, photometric)
Procedure, shortened: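 Mycelial fragments in potato dextrose broth were exposed to compound from DMSO at 200 ppm in microtiter plates. Incubation at 24 °C; growth inhibition read photometrically 4-5 days after application.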

[9] = system: Thanatephorus cucumeris (Rhizoctonia solani); test: Thanatephorus cucumeris (Rhizoctonia solani) / liquid culture (foot rot, damping-off); assay type: cell-based; settings: PDB, 24° C., 3-4 days after application, read-out: control of Thanatephorus cucumeris (inhibition of growth, photometric)
Procedure, shortened: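 Mycelial fragments in potato dextrose broth exposed to test compounds at 200 ppm (from DMSO solution), incubated at 24° C. Growth inhibition read photometrically 3-4 days after application.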

[10] = system: Monographella nivalis (Microdochium nivale); test: Monographella nivalis (Microdochium nivale) / liquid culture (foot rot cereals); assay type: cell-based; settings: PDB, 24° C., 4-5 days after application, read-out: control of Monographella nivalis (inhibition of growth, photometric)
Procedure, shortened: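 Cryostored conidia in potato dextrose broth were added to test compound dispensed from DMSO at 200 ppm. Plates were kept at 24° C, and growth inhibition was read photometrically 4-5 days after application.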

[11] = system: Pythium ultimum; test: Pythium ultimum / liquid culture (seedling damping off); assay type: cell-based; settings: Globisporangium ultimum, potato dextrose broth, 24° C., 2-3 days after application, read-out: control of Pythium ultimum (inhibition of growth, photometric)
Protocol: Pythium ultimum/Liquid Culture (Seedling Damping Off) Mycelia fragments and oospores of a newly grown liquid culture of the fungus were directly mixed into nutrient broth (potato dextrose broth). After placing a DMSO solution of test compound into a 96-well format microtiter plate at an application rate of 200 ppm, the nutrient broth containing the fungal mycelia/spore mixture was added. The test plates were incubated at 24° C. and the inhibition of growth was determined photometrically 2-3 days after application.

[12] = system: Sclerotinia sclerotiorum; test: Sclerotinia sclerotiorum liquid culture (cottony rot / white mold); assay type: cell-based; settings: PDB, 24° C., 3-4 days after application, read-out: control of Sclerotinia sclerotiorum (inhibition of growth, photometric)
Procedure, shortened: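 Mycelia fragments of Sclerotinia sclerotiorum in potato dextrose broth were added to compound in DMSO. Cultures incubated at 24° C; growth inhibition determined photometrically 3-4 days after application.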

[13] = system: Mycosphaerella arachidis (Cercospora arachidicola); test: Mycosphaerella arachidis (Cercospora arachidicola) / liquid culture (early leaf spot); assay type: cell-based; settings: PDB, 24° C., 4-5 days after application, read-out: control of Mycosphaerella arachidis (inhibition of growth, photometric)
Procedure, shortened: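 Conidia suspended in potato dextrose broth and added to test compound from DMSO solution at 200 ppm. Incubated at 24 °C; growth inhibition read photometrically 4-5 days after application.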

[14] = system: Fusarium culmorum; test: microbe, parasite or virus in culture; assay type: cell-based; settings: read-out: control of Fusarium culmorum (inhibition of growth, photometric)
[15] = system: Blumeria graminis f. Sp. Tritici (Erysiphe graminis f. Sp. Tritici); test: Blumeria graminis f. sp. tritici / wheat / leaf disc preventative (powdery mildew on wheat); assay type: in vivo; settings: foliar, wheat leaf segments cv. Kanzler, inoculated 1 day after application, assessed 6-8 days after application, read-out: control of Blumeria graminis (percent disease control compared to untreated)
Protocol: Blumeria graminis f. Sp. Tritici (Erysiphe graminis f. Sp. Tritici)/Wheat/Leaf Disc Preventative (Powdery Mildew on Wheat):
Wheat leaf segments cv. Kanzler were placed on agar in a 24-well plate and sprayed with the formulated test compound diluted in water at an application rate of 200 ppm. The leaf disks were inoculated by shaking powdery mildew infected plants above the test plates 1 day after application. The inoculated leaf disks were incubated at 20° C. and 60% relative humidity under a light regime of 24 h darkness followed by 12 h/12 h (dark/light) in a climate chamber and the activity of a compound was assessed as percent disease control compared to untreated when an appropriate level of disease damage appears on untreated check leaf segments (6-8 days after application). The following compounds gave at least 80% control of Blumeria graminis at 200 ppm when compared to untreated control leaf disks under the same conditions, which show extensive disease development: 2, 13, 23, 50, 59, 61, 67, 75, 85, 86, 89, 90, 93, 102, 103, 107, 134, 136, 137, 138, 139, 141, 145, 151, 153, 154, 163, 173, 174

Row | SMILES | pest or weed control at 200 ppm [1] [%] | pest or weed control at 200 ppm [2] [%] | pest or weed control at 200 ppm [3] [%] | pest or weed control at 200 ppm [4] [%] | inhibition at 20 ppm [5] [%] | inhibition at 20 ppm [6] [%] | inhibition at 20 ppm [7] [%] | inhibition at 20 ppm [8] [%] | inhibition at 20 ppm [9] [%] | inhibition at 20 ppm [10] [%] | inhibition at 20 ppm [11] [%] | inhibition at 20 ppm [12] [%] | inhibition at 20 ppm [13] [%] | melting point [°C] | inhibition at 20 ppm [14] [%] | pest or weed control at 200 ppm [15] [%]
1 | CCCn1c(-n2ncnc2N)nc2cncc(-c3ccccc3Cl)c21 [Compound 172, 2-[7-(2-chlorophenyl)-1-propyl-imidazo[4,5-c]pyridin-2-yl]-1,2,4-triazol-3-amine] | ≥ 80 | ≥ 80 | ≥ 80 | ≥ 80 | ≥ 80 | ≥ 80 | ≥ 80 | ≥ 80 | ≥ 80 | ≥ 80 | ≥ 80 | ≥ 80 | – | – | – | –
2 | CCn1c(-n2ncnc2N)nc2cncc(C)c21 [Compound 22, 2-(1-ethyl-7-methylimidazo[4,5-c]pyridin-2-yl)-1,2,4-triazol-3-amine] | – | ≥ 80 | ≥ 80 | ≥ 80 | ≥ 80 | ≥ 80 | ≥ 80 | ≥ 80 | ≥ 80 | ≥ 80 | ≥ 80 | ≥ 80 | ≥ 80 | 194 to 198 | – | –
3 | CCn1c(-n2ncnc2N)nc2cncc(-c3ccc(F)cc3F)c21 [Compound 80, 2-[7-(2,4-difluorophenyl)-1-ethylimidazo[4,5-c]pyridin-2-yl]-1,2,4-triazol-3-amine] | – | ≥ 80 | ≥ 80 | ≥ 80 | ≥ 80 | ≥ 80 | ≥ 80 | ≥ 80 | ≥ 80 | ≥ 80 | ≥ 80 | ≥ 80 | ≥ 80 | – | – | –
4 | CCn1c(-n2ncnc2N)nc2cncc(-c3ccccc3)c21 [Compound 19, 2-(1-ethyl-7-phenylimidazo[4,5-c]pyridin-2-yl)-1,2,4-triazol-3-amine] | ≥ 80 | ≥ 80 | ≥ 80 | ≥ 80 | ≥ 80 | ≥ 80 | ≥ 80 | ≥ 80 | ≥ 80 | ≥ 80 | ≥ 80 | – | – | 247 to 251 | – | –
5 | CCn1c(-n2ncnc2N)nc2cncc(-c3ccc(Cl)cc3Cl)c21 [Compound 38, 2-[7-(2,4-dichlorophenyl)-1-ethylimidazo[4,5-c]pyridin-2-yl]-1,2,4-triazol-3-amine] | – | ≥ 80 | ≥ 80 | ≥ 80 | ≥ 80 | ≥ 80 | ≥ 80 | ≥ 80 | ≥ 80 | ≥ 80 | ≥ 80 | ≥ 80 | ≥ 80 | – | – | –
6 | CCn1c(-n2ncnc2N)nc2cncc(-c3ccc(Cl)c(Cl)c3F)c21 [Compound 100, 2-[7-(3,4-dichloro-2-fluorophenyl)-1-ethylimidazo[4,5-c]pyridin-2-yl]-1,2,4-triazol-3-amine] | – | ≥ 80 | ≥ 80 | ≥ 80 | ≥ 80 | ≥ 80 | ≥ 80 | ≥ 80 | ≥ 80 | ≥ 80 | – | ≥ 80 | – | – | ≥ 80 | –
7 | CCCCc1nc(N)n(-c2nc3cnccc3n2C2CCCCC2)n1 [Compound 6, 5-butyl-2-(1-cyclohexylimidazo[4,5-c]pyridin-2-yl)-1,2,4-triazol-3-amine] | – | – | – | – | – | ≥ 80 | – | – | – | – | ≥ 80 | – | – | 163 to 165 | – | –
8 | CCn1c(-n2ncnc2N)nc2cncc(-c3ccccc3C#N)c21 [Compound 85, 2-[2-(5-amino-1,2,4-triazol-1-yl)-1-ethylimidazo[4,5-c]pyridin-7-yl]benzonitrile] | – | ≥ 80 | – | ≥ 80 | ≥ 80 | ≥ 80 | ≥ 80 | ≥ 80 | ≥ 80 | – | ≥ 80 | – | – | – | – | ≥ 80
9 | CCn1c(-n2ncnc2N)nc2cncc(-c3cc(Cl)ccc3Cl)c21 [Compound 88, 2-[7-(2,5-dichlorophenyl)-1-ethylimidazo[4,5-c]pyridin-2-yl]-1,2,4-triazol-3-amine] | – | ≥ 80 | ≥ 80 | ≥ 80 | ≥ 80 | ≥ 80 | ≥ 80 | ≥ 80 | ≥ 80 | ≥ 80 | – | ≥ 80 | – | – | ≥ 80 | –
10 | CCn1c(-n2ncnc2N)nc2cncc(-c3ccc(OC)nc3)c21 [Compound 59, 2-[1-ethyl-7-(6-methoxypyridin-3-yl)imidazo[4,5-c]pyridin-2-yl]-1,2,4-triazol-3-amine] | – | ≥ 80 | ≥ 80 | ≥ 80 | ≥ 80 | ≥ 80 | ≥ 80 | ≥ 80 | ≥ 80 | – | ≥ 80 | – | – | – | – | ≥ 80
